Reference: ChEMBL document CHEMBL1201862, “PubChem BioAssay data set” (2004)
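Growth conditions: 96-well plates. Treatment: test compound, 48 hours, 5 concentrations. Analysis: linear interpolation between bracketing concentrations; unreached endpoints set to highest concentration. GI50 = concentration required for 50% inhibition of growth.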 Active and inactive are the calls of the source. Cut-off read from the data, not from the text of the source: active = GI50 up to about 1.1 µM and inactive = higher.

Experiments:
Assay in all cases: NCI-60 cell line screen, 48 h
CCRF-CEM = tested on: CCRF-CEM
SF-295 = tested on: SF-295
MOLT-4 = tested on: MOLT-4
Malme-3M = tested on: Malme-3M
SR = tested on: SR
SF-539 = tested on: SF-539
U-251 = tested on: U-251
SK-MEL-2 = tested on: SK-MEL-2
A498 = tested on: A498
SN12C = tested on: SN12C
M14 = tested on: M14
SK-OV-3 = tested on: SK-OV-3
SNB-75 = tested on: SNB-75
UACC-257 = tested on: UACC-257
COLO 205 = tested on: COLO 205
IGROV-1 = tested on: IGROV-1
MCF7 = tested on: MCF7
PC-3 = tested on: PC-3
Hs-578T = tested on: Hs-578T

Measured: GI50

CCOP(=O)(OCC)/C(C#N)=C/c1ccco1
inactive: CCRF-CEM > 100 µM | SF-295 > 100 µM | MOLT-4 > 100 µM | Malme-3M > 100 µM | SR > 100 µM | SF-539 > 100 µM | U-251 > 100 µM | SK-MEL-2 > 100 µM | A498 > 100 µM | SN12C > 100 µM | M14 > 100 µM | SK-OV-3 > 100 µM | SNB-75 > 100 µM | UACC-257 > 100 µM | COLO 205 > 100 µM | IGROV-1 > 100 µM

CCOC(=O)Cc1nnc2n(-c3ccccc3)c(=O)c3ccccc3n12
inactive: CCRF-CEM > 100 µM | SF-295 > 100 µM | MOLT-4 > 100 µM | Malme-3M > 100 µM | SR > 100 µM | SF-539 51.6 µM | U-251 > 100 µM | MCF7 > 100 µM | SK-MEL-2 41.6 µM | A498 > 100 µM | SN12C > 100 µM | M14 > 100 µM | SK-OV-3 > 100 µM | PC-3 34.5 µM | SNB-75 43.9 µM | UACC-257 46.1 µM | COLO 205 83.8 µM | IGROV-1 > 100 µM

CNc1ncnc2c1nnn2C
inactive: CCRF-CEM > 100 µM | SF-295 > 100 µM | MOLT-4 > 100 µM | Malme-3M > 100 µM | SF-539 > 100 µM | U-251 > 100 µM | MCF7 > 100 µM | SK-MEL-2 > 100 µM | A498 > 100 µM | SN12C > 100 µM | M14 > 100 µM | SK-OV-3 > 100 µM | PC-3 > 100 µM | SNB-75 > 100 µM | UACC-257 > 100 µM | COLO 205 > 100 µM | IGROV-1 > 100 µM

COC(=O)C1(C(=O)OC)N=C(C)OC1c1ccccn1 (configuration not stated)
inactive: CCRF-CEM > 100 µM | SF-295 > 100 µM | MOLT-4 > 100 µM | SR > 100 µM | U-251 > 100 µM | MCF7 > 100 µM | SK-MEL-2 > 100 µM | A498 > 100 µM | SN12C > 100 µM | M14 > 100 µM | SK-OV-3 > 100 µM | PC-3 > 100 µM | SNB-75 > 100 µM | UACC-257 > 100 µM | COLO 205 > 100 µM | IGROV-1 > 100 µM

O=C1C2Nc3ccccc3SC2C(=O)N1c1ccccc1C(F)(F)F (configuration not stated)
inactive: CCRF-CEM 15.2 µM | SF-295 14.9 µM | MOLT-4 23.2 µM | Malme-3M 19.7 µM | SR 32.7 µM | SF-539 17.8 µM | U-251 19.1 µM | SK-MEL-2 27.2 µM | SN12C 27.2 µM | M14 16 µM | SK-OV-3 23.7 µM | UACC-257 > 100 µM | IGROV-1 54.1 µM

C/C(=N/NC(N)=S)C(CN1CCOCC1)C(C1=C(O)c2ccccc2OC1)c1ccccc1 (configuration not stated)
inactive: CCRF-CEM 60.7 µM | SF-295 > 100 µM | MOLT-4 39 µM | Malme-3M 69 µM | SR 25.4 µM | SF-539 > 100 µM | U-251 > 100 µM | SK-MEL-2 > 100 µM | A498 > 100 µM | SN12C > 100 µM | M14 > 100 µM | SK-OV-3 > 100 µM | SNB-75 78 µM | UACC-257 > 100 µM | COLO 205 68.9 µM | IGROV-1 > 100 µM

CC1(C)OC(=O)C2(O1)C(=O)C1CCCCC12 (configuration not stated)
inactive: CCRF-CEM 8.97 µM | SF-295 > 100 µM | MOLT-4 > 100 µM | Malme-3M 67.9 µM | U-251 97.1 µM | MCF7 5.75 µM | SK-MEL-2 > 100 µM | A498 4.78 µM | SN12C 3.63 µM | M14 > 100 µM | SK-OV-3 8.51 µM | PC-3 > 100 µM | UACC-257 40 µM | COLO 205 20.1 µM | Hs-578T 32.4 µM | IGROV-1 > 100 µM

COc1cccc(NC(=O)CC(=O)N2NC(c3ccccc3)C(/N=N/c3cccc(C(=O)O)c3)C2=O)c1 (configuration not stated)
inactive: SF-295 > 100 µM | MOLT-4 86.3 µM | Malme-3M > 100 µM | SR 55.2 µM | SF-539 > 100 µM | U-251 > 100 µM | A498 > 100 µM | SN12C > 100 µM | M14 > 100 µM | SK-OV-3 > 100 µM | SNB-75 > 100 µM | UACC-257 > 100 µM | COLO 205 > 10 µM | IGROV-1 > 100 µM

NNC(=O)CC(=O)Nc1ccc(S(=O)(=O)c2ccc(NC(=O)CC(=O)NN)cc2)cc1
inactive: CCRF-CEM > 100 µM | SF-295 > 100 µM | MOLT-4 > 100 µM | SF-539 > 100 µM | U-251 > 100 µM | SK-MEL-2 > 100 µM | A498 > 100 µM | SN12C > 100 µM | M14 > 100 µM | SK-OV-3 > 100 µM | PC-3 > 100 µM | SNB-75 > 100 µM | UACC-257 > 100 µM | COLO 205 > 100 µM | Hs-578T > 100 µM | IGROV-1 > 100 µM
